Patent US8431563B2 (priority 2010, dated 2013)

Legend:
[1] = target: T1, interaction between glucokinase (GK) and glucokinase regulatory protein (GKRP) (Homo sapiens, UniProt Q14397); assay: biochemical; format: binding; settings: avi-tagged GKRP, GK-fluorescein, AlphaScreen beads; read-out: GK-GKRP IC50 (Binding)
T1 sequence (Q14397 1-625): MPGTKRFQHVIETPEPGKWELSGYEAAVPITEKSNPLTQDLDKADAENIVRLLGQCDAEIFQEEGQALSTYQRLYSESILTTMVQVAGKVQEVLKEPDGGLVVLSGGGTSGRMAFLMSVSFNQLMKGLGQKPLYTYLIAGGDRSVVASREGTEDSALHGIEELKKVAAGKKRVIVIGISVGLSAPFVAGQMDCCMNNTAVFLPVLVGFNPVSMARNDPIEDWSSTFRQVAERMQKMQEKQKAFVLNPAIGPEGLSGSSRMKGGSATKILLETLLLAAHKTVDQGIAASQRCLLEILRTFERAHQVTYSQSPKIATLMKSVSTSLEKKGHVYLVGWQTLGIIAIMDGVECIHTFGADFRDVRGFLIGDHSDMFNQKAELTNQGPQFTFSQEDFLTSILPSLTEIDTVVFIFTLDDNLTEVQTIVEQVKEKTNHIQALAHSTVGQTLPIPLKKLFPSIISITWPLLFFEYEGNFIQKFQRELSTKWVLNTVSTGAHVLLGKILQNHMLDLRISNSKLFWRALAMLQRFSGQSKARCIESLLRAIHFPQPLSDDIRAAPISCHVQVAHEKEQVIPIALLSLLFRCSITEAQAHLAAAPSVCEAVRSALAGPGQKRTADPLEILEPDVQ
Outline: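 Measures direct GK–GKRP binding in 20 mM Tris pH 7.5 containing 1 μM sorbitol-6-phosphate, 0.05% BSA and 1 mM DTT. Compound and avi-tagged GKRP sit 20 min at room temperature before GK-fluorescein addition (6 nM in the added buffer); read after 2 h dark incubation at room temperature.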

[2] = target: T2, GKRP (Glucokinase Regulatory Protein) with human His-hepatic GK (Homo sapiens, UniProt Q14397); assay: biochemical; settings: 13C-glucose-6-phosphate formation; 280 nM GKRP (10×), 30 nM GK (5×); read-out: GK-GKRP EC50 (LC MS/MS-2)
T2 sequence (Q14397 1-625): T1 sequence (Q14397 1-625)
Outline: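 Product formation, 13C-glucose-6-phosphate from 13C-glucose, was measured directly by LC MS/MS after acetonitrile quench. The GK reaction ran 30 min at room temperature in Tris pH 7.5 buffer with 4 mM MgCl2 and 6% DMSO. The 5× enzyme stock was 30 nM His-tagged human hepatic glucokinase.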

Molecule	IC50 [1] [nM]	EC50 [2] [nM]
C[C@H]1CN(S(=O)(=O)c2ccc(N)s2)CCN1c1ccc(C(C)(O)C(F)(F)F)cc1 (mixture of isomers) [Example 139, 2-(4-((2S)-4-((5-amino-2-thiophenyl)sulfonyl)-2-methyl-1-piperazinyl)phenyl)-1,1,1-trifluoro-2-propanol]	630	370
Nc1ccc(S(=O)(=O)N2CCN(c3ncc(C(O)(C(F)(F)F)C(F)(F)F)cn3)[C@@H](CN3C4COCC3CC(O)C4)C2)cn1 (stereo partly drawn) [Example 99 nonan-7-ol (endo), 9-(((2S)-4-((6-amino-3-pyridinyl)sulfonyl)-1-(5-(2,2,2-trifluoro-1-hydroxy-1-(trifluoromethyl)ethyl)-2-pyrimidinyl)-2-piperazinyl)methyl)-3-oxa-9-azabicyclo[3.3.1]nonan-7-ol (endo)]	3	25
CS(=O)(=O)N(C[C@H]1CN(S(=O)(=O)c2ccc(N)nc2)CCN1c1ncc(C(O)(C(F)(F)F)C(F)(F)F)cn1)c1ccccc1 [Example 234, N-(((2R)-4-((6-amino-3-pyridinyl)sulfonyl)-1-(5-(2,2,2-trifluoro-1-hydroxy-1-(trifluoromethyl)ethyl)-2-pyrimidinyl)-2-piperazinyl)methyl)-N-phenylmethanesulfonamide]	4	17
CC(C)CN(C[C@H]1CN(S(=O)(=O)c2ccc(N)s2)CCN1c1ncc(C(O)(C(F)(F)F)C(F)(F)F)cn1)S(C)(=O)=O [Example 229, N-(((2S)-4-((5-amino-2-thiophenyl)sulfonyl)-1-(5-(2,2,2-trifluoro-1-hydroxy-1-(trifluoromethyl)ethyl)-2-pyrimidinyl)-2-piperazinyl)methyl)-N-(2-methylpropyl)methanesulfonamide]	1	13
CC1(C)C(=O)NCCN1C[C@H]1CN(S(=O)(=O)c2ccc(N)s2)CCN1c1ncc(C(O)(C(F)(F)F)C(F)(F)F)cn1 [Example 227, (S)-4-((4-((5-aminothiophen-2-yl)sulfonyl)-1-(5-(1,1,1,3,3,3-hexafluoro-2-hydroxypropan-2-yl)pyrimidin-2-yl)piperazin-2-yl)methyl)-3,3-dimethylpiperazin-2-one]	2	21
CC(O)(c1ccc(N2CCN(S(=O)(=O)c3cccs3)CC2CN2C3COCC2C(O)C3)cc1)C(F)(F)F (single isomer, unassigned) [Example 77 Peak #2]	11	19
CS(=O)(=O)N(C[C@H]1CN(S(=O)(=O)c2ccc(N)s2)CCN1c1ncc(C(O)(C(F)(F)F)C(F)(F)F)cn1)c1ccccc1 [Example 233, N-(((2R)-4-((5-amino-2-thiophenyl)sulfonyl)-1-(5-(2,2,2-trifluoro-1-hydroxy-1-(trifluoromethyl)ethyl)-2-pyrimidinyl)-2-piperazinyl)methyl)-N-phenylmethanesulfonamide]	< 1	8
CC(F)(c1ccc(N2CCN(S(=O)(=O)c3cccs3)C[C@@H]2CN2C3CCCC2CC(F)C3)cc1)C(F)(F)F (mixture of isomers) [Example 142, 3-fluoro-9-(((2S)-1-(4-(1,2,2,2-tetrafluoro-1-methylethyl)phenyl)-4-(2-thiophenylsulfonyl)-2-piperazinyl)methyl)-9-azabicyclo[3.3.1]nonane (exo)]	47	189
CC(O)(c1ccc(N2CCN(S(=O)(=O)c3cccs3)C[C@@H]2CN(C2CCC2)S(C)(=O)=O)cc1)C(F)(F)F (stereo partly drawn) [Example 212, N-cyclobutyl-N-(((2R)-4-(2-thiophenylsulfonyl)-1-(4-(2,2,2-trifluoro-1-hydroxy-1-methylethyl)phenyl)-2-piperazinyl)methyl) methanesulfonamide]	68	92
CC1(O)C[C@H]2COC[C@@H](C1)N2C[C@H]1CN(S(=O)(=O)c2cccs2)CCN1c1ccc(C(C)(O)C(F)(F)F)cc1 (stereo partly drawn) [Example 108, (1R,5S)-7-methyl-9-(((2S)-4-(2-thiophenylsulfonyl)-1-(4-(2,2,2-trifluoro-1-hydroxy-1-methylethyl)phenyl)-2-piperazinyl)methyl)-3-oxa-9-azabicyclo[3.3.1]nonan-7-ol (endo)]	27	45
CC(C)CN(C[C@H]1CN(S(=O)(=O)c2ccc(N)nc2)CCN1c1ncc(C(O)(C(F)(F)F)C(F)(F)F)cn1)S(C)(=O)=O [Example 230 (6-amino-3-pyridinyl), N-(((2S)-4-((6-amino-3-pyridinyl)sulfonyl)-1-(5-(2,2,2-trifluoro-1-hydroxy-1-(trifluoromethyl)ethyl)-2-pyrimidinyl)-2-piperazinyl)methyl)-N-(2-methylpropyl)methanesulfonamide]	1	11
C[C@H]1CN(S(=O)(=O)c2ccccc2N)CCN1c1ncc(C(O)(C(F)(F)F)C(F)(F)F)cn1 [Example 167, (S)-2-(2-(4-(2-aminophenylsulfonyl)-2-methylpiperazin-1-yl)pyrimidin-5-yl)-1,1,1,3,3,3-hexafluoro-2-propanol]	508	516
CCC(C#Cc1cc(C(O)(C(F)(F)F)C(F)(F)F)ccc1N1CCN(S(=O)(=O)c2cccs2)CC1)OC (racemic) [Example 155, 1,1,1,3,3,3-hexafluoro-2-(3-(3-methoxy-1-pentyn-1-yl)-4-(4-(2-thiophenylsulfonyl)-1-piperazinyl)phenyl)-2-propanol]	145	112
CC(O)(c1ccc(N2CCN(S(=O)(=O)c3cccs3)C[C@@H]2CN2CCC[C@H](O)C2)cc1)C(F)(F)F (mixture of isomers) [Example 145, (3S)-1-(((2S)-4-(2-thiophenylsulfonyl)-1-(4-(2,2,2-trifluoro-1-hydroxy-1-methylethyl)phenyl)-2-piperazinyl)methyl)-3-piperidinol]	628	880
2-(4-((2S)-4-((5-amino-2-thiophenyl)sulfonyl)-2-(((3S)-3-methyl-4-morpholinyl)methyl)-1-piperazinyl)phenyl)-1,1,1,3,3,3-hexafluoro-2-propanol [Example 225]	7	19
Cn1cnc(COC[C@H]2CN(S(=O)(=O)c3cccs3)CCN2c2ccc(C(C)(O)C(F)(F)F)cc2)c1 (single isomer, unassigned) [Example 119 Peak #2]	979	206
CC(O)(c1ccc(N2CCN(S(=O)(=O)c3cccs3)C[C@@H]2CS(=O)(=O)c2cccc(F)c2)cc1)C(F)(F)F (mixture of isomers) [Example 189 Peak#1, 1,1,1-trifluoro-2-(4-((2R)-2-(((3-fluorophenyl)sulfonyl)methyl)-4-(2-thiophenylsulfonyl)-1-piperazinyl)phenyl)-2-propanol]	374	235
CC(C)N(C[C@H]1CN(S(=O)(=O)c2ccc(N)nc2)CCN1c1ncc(C(O)(C(F)(F)F)C(F)(F)F)cn1)S(C)(=O)=O [Example 232, N-(((2R)-4-((6-amino-3-pyridinyl)sulfonyl)-1-(5-(2,2,2-trifluoro-1-hydroxy-1-(trifluoromethyl)ethyl)-2-pyrimidinyl)-2-piperazinyl)methyl)-N-(1-methylethyl)methanesulfonamide]	35	63
C[C@H]1COCCN1C[C@H]1CN(S(=O)(=O)c2ccc(N)nc2)CCN1c1ccc([C@@](C)(O)C(F)(F)F)cc1 (single isomer, unassigned) [Example 125 Peak #1]	4	26
COCC#Cc1cc(C(O)(C(F)(F)F)C(F)(F)F)ccc1N1CCN(S(=O)(=O)c2cccs2)CC1 [Example 153, 1,1,1,3,3,3-hexafluoro-2-(3-(3-methoxyprop-1-YNYL)-4-(4-(thiophen-2-ylsulfonyl)piperazin-1-yl)phenyl)propan-2-ol]	363	675
CC(C)CS(=O)(=O)N(C[C@H]1CN(S(=O)(=O)c2cccs2)CCN1c1ccc(C(C)(O)C(F)(F)F)cc1)c1cccnc1 (mixture of isomers) [Example 223, 2-methyl-N-3-pyridinyl-N-(((2R)-4-(2-thiophenylsulfonyl)-1-(4-(2,2,2-trifluoro-1-hydroxy-1-methylethyl)phenyl)-2-piperazinyl)methyl)-1-propanesulfonamide]	35	86
O=S(=O)(c1cccs1)N1CCN(c2ccc(C(O)(C(F)(F)F)C(F)(F)F)cc2C#CCCO)CC1 [Example 150, 4-(2-(4-(2-thiophenylsulfonyl)-1-piperazinyl)-5-(2,2,2-trifluoro-1-hydroxy-1-(trifluoromethyl)ethyl)phenyl)-3-butyn-1-ol]	656	895
